{"source": "paper PMC5608352", "about": "“Formyl peptide derived lipopeptides disclose differences between the receptors in mouse and men and call the pepducin concept in question” (PLoS ONE, 2017)", "assay_type_in_all_cases": "cell-based", "key": {"mouse neutrophils": {"biological_target": "T1, mouse neutrophils (Mus musculus, UniProt O88536)", "T1 sequence (O88536 1-351)": "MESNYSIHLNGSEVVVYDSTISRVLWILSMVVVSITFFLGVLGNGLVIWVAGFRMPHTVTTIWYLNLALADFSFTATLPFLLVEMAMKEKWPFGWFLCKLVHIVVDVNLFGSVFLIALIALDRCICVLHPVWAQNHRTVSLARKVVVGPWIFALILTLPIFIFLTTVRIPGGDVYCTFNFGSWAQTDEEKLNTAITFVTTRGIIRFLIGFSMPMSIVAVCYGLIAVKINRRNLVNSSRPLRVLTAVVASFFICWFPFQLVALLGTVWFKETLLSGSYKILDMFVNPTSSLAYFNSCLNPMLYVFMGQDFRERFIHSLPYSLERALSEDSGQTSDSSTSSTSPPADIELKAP", "experiment": "Direct activation: superoxide release (isoluminol/HRP chemiluminescence), WT mouse bone marrow neutrophils", "conditions": "WT mouse (C57BL/6) bone marrow neutrophils, TNF-α primed, 5 x 10^4 cells, 37°C, isoluminol/HRP CL, peak activity; pepducin 1 μM in figures", "from_the_text": "(§1) Mice (8–12 weeks of age) were killed by cervical dislocation, the femurs and tibias were removed and freed of soft tissue attachments, and the extreme distal tip of each extremity was cut off. KRG without Ca^2+ and Mg^2+ (KRG-) was forced through the bone by using a 1-mL syringe with a 27-gauge needle. After dispersing cell clumps and removing the debris, the bone marrow granulocytes were isolated according to an earlier described procedure with some modifications. Briefly, a cell suspension in 2 mL of KRG- was laid on top of a three-layer Percoll gradient (1.095, 1.085, and 1.070 g/mL). The density of each Percoll solution was verified using density marker beads. After centrifugation at 500 × g for 30 min at 4°C in a swinging bucket rotor, the lowest band (1.085/1.095 g/mL interface) was collected as the neutrophil fraction. After washing with KRG-, remaining red blood cells were eliminated by hypotonic lysis. After a final wash with KRG-, the cells were resuspended in KRG. The cell number and population of bone marrow cells were determined by flow cytometry based on forward scatter (size) and side scatter (density) localization.\nNADPH-oxidase activity was determined using an isoluminol and HRP-enhanced chemiluminescence (CL) system that allow for the determination of superoxide production. The CL activity was measured in a six-channel Biolumat LB 9505 apparatus (Berthold Co., Wildbad, Germany), using disposable 4-mL polypropylene tubes with 1 mL reaction mixture. The tubes contained 4 U HRP and 10 μg/mL isoluminol together with the cells that were equilibrated in the Biolumat for 5 min at 37°C, after which the stimulus solution (100 μL) was added. The light emission was recorded continuously over time and presented as superoxide production (in arbitrary light units, cpm x10^-6) as a function of time (min). The activity before stimulus addition was recorded as basal line and this activity was not changed in vehicle control samples. Since the FPR/Fpr-mediated superoxide production with respect to the onset and decline are very similar, the peak activities were used to compare the responses induced.\nNaïve bone marrow cells produce very low levels of superoxide upon stimulation and to increase this production the cells were routinely primed for one hour at RT followed by TNF-α (10 ng/mL, final concentration) priming for a period of 20 min at 37°C [10]. The cells were then kept on ice until further analysis, as described above. The reason for choosing the chemiluminescence based NADPH-oxidase assay system was that very few cells are required, allowing us to monitor and quantify receptor-mediated events with the limited number of mouse bone marrow neutrophils available.\nData analysis was performed using Graph Pad Prism 7.0. The EC50/IC50 values were determined from experiments in which the activities were normalized to the response induced by maximal response or induced by agonist in the absence of inhibitor. The statistical analysis was performed on raw data using Student’s t-test when two groups were compared or one-way ANOVA with Dunnett’s multiple comparisons test in comparison to the control response when three groups were compared. * p ≤ 0.05 was considered significant."}, "Fpr2 [1]": {"biological_target": "T2, Fpr2 (Mus musculus, UniProt O88536)", "T2 construct": "WT mouse neutrophils (5 x 10^4 cells) were pre-incubated without (solid line) or with mF2Pal16; endogenous in cells; host or cells: bone marrow neutrophils of C57BL/6 wild-type mice, TNF-alpha primed", "T2 sequence (O88536 1-351)": "T1 sequence (O88536 1-351)", "experiment": "Inhibition of PSMα2-induced superoxide release, WT mouse neutrophils", "conditions": "mF2Pal16 500 nM, 5 min pre-incubation; PSMα2 10 nM", "from_the_text": "as §1, with “After centrifugation at 500 × g for 30 min at 4°C in a swinging bucket rotor, the lowest band (1.085/1.095 g/mL interface) was collected as the neutrophil fraction. After washing with KRG-, remaining red blood cells were eliminated by hypotonic lysis. After a final wash with KRG-, the cells were resuspended in KRG.” left out\n(§2) NADPH-oxidase activity was determined using an isoluminol and HRP-enhanced chemiluminescence (CL) system that allow for the determination of superoxide production. The CL activity was measured in a six-channel Biolumat LB 9505 apparatus (Berthold Co., Wildbad, Germany), using disposable 4-mL polypropylene tubes with 1 mL reaction mixture. […] The light emission was recorded continuously over time and presented as superoxide production (in arbitrary light units, cpm x10^-6) as a function of time (min). […]"}, "Fpr1": {"tested_on": "Fpr1", "experiment": "Inhibition of fMIFL-induced superoxide release, WT mouse neutrophils", "conditions": "fMIFL 10 nM; mF2Pal16 1 μM (inset) or 500 nM", "from_the_text": "as §1, with “After centrifugation at 500 × g for 30 min at 4°C in a swinging bucket rotor, the lowest band (1.085/1.095 g/mL interface) was collected as the neutrophil fraction. After washing with KRG-, remaining red blood cells were eliminated by hypotonic lysis. After a final wash with KRG-, the cells were resuspended in KRG.” left out\nas §2"}, "Fpr2 [2]": {"biological_target": "T2, Fpr2", "experiment": "Inhibition of F2M2-induced superoxide release, WT mouse neutrophils", "conditions": "mF2Pal16 500 nM; F2M2 150 nM; three independent experiments", "from_the_text": "as §1, with “After centrifugation at 500 × g for 30 min at 4°C in a swinging bucket rotor, the lowest band (1.085/1.095 g/mL interface) was collected as the neutrophil fraction. After washing with KRG-, remaining red blood cells were eliminated by hypotonic lysis. After a final wash with KRG-, the cells were resuspended in KRG.” left out\nas §2"}, "Fpr2 [3]": {"biological_target": "T2, Fpr2", "experiment": "Inhibition of F2Pal16-induced superoxide release, WT mouse neutrophils", "conditions": "Boc2 2 μM or peptidomimetic inhibitor 1 μM (five experiments), or mF2Pal16 500 nM against F2Pal16 500 nM (three experiments); 5 min pre-incubation", "from_the_text": "as §1\nas §2, with “(min). The activity before stimulus addition was recorded as basal line and this activity was not changed in vehicle control samples.” for “(min).”\nData analysis was performed using Graph Pad Prism 7.0. The EC50/IC50 values were determined from experiments in which the activities were normalized to the response induced by maximal response or induced by agonist in the absence of inhibitor. […]"}}, "note": "Residues, ends and D or L forms follow the SMILES beside them. *: point of attachment. Palmitoyl = CCCCCCCCCCCCCCCC(=O)*", "data": [{"smiles": "CCCCCCCCCCCCCCCC(=O)N[C@@H](CCCCN)C(=O)N[C@H](C(=O)N[C@@H](CC(N)=O)C(=O)N[C@@H](CCCNC(=N)N)C(=O)N[C@@H](CCCNC(=N)N)C(=O)N[C@@H](CC(N)=O)C(=O)N[C@@H](CC(C)C)C(=O)N[C@H](C(=O)N[C@@H](CC(N)=O)C(=O)N[C@@H](CO)C(=O)N[C@@H](CO)C(=O)N[C@@H](CCCNC(=N)N)C(=O)N1CCC[C@H]1C(=O)N[C@@H](CC(C)C)C(=O)N[C@@H](CCCNC(=N)N)C(=O)N[C@H](C(=O)O)C(C)C)C(C)C)[C@@H](C)CC", "note": "[mF2Pal16] (Palmitoyl-KINRRNLVNSSRPLRV-OH; C-terminus assumed)", "values": [{"measurement": "superoxide release / activation of WT mouse neutrophils", "setting": "mouse neutrophils", "result": "No activation of mouse neutrophils"}, {"measurement": "inhibition of PSMα2 response, mouse neutrophils", "setting": "Fpr2 [1]", "result": "potently inhibited"}, {"measurement": "effect on fMIFL response, mouse neutrophils", "setting": "Fpr1", "result": "no effect"}, {"measurement": "effect on F2M2 response, mouse neutrophils", "setting": "Fpr2 [2]", "result": "inhibitory effect"}, {"measurement": "effect of inhibitor on F2Pal16 response, WT mouse neutrophils", "setting": "Fpr2 [3]", "result": "inhibitory effect"}]}]}
